Measured values taken from patent publication US6143719A, “Bradykinin analogs as selective thrombin inhibitors” (The Regents of the University of Michigan, priority 1996, dated 2000).
pIC50: −log10 of the molar value. Read-outs that look alike come from different tables or passages of the source. Ends that are not written are not given here.

Legend:
human platelets = type: cell-based
Experimental: The cytoplasmic free Ca^2+ concentration ([Ca^2+ ]i) was measured using the fluorescent Ca^2 + indicator fura-2 (Molecular Probes, Inc., Eugene, Oreg.). Gel filtered platelets in Hepes-Tyrode's buffer were loaded with fura-2 by incubation at 37° C. with 1 μM fura-2/acetoxymethyl ester for 45 min according to the method of Rasmussen et al., J. Biol. Chem. 268, 14322 (1993). The labeled platelets were then re-gel filtered to remove any excess probe. Aliquots of the labeled platelet suspension were transferred into a quartz cuvette with a magnetic stirrer, which was then placed in a thermostatically controlled chamber at 37° C. in a fluorescence spectrophotometer (Dual Wave Length Shimazdu SP5000 Spectrofluorometer, Shimazdu USA, Pittsburgh, Pa.). Reagents were directly added to the cuvette. The excitation wave lengths varied between 340 and 380 nm. The fluorescence was measured by recording emitted light at 510 nm as reported by Fisher et al, Mol. Pharm. 35, 195 (1989). The minimum emission was determined on a 20 mM digitonin, 10 mM EGTA solubilized platelet sample; maximum emission was determined on the same sample with 10 mM Ca^2+ added. The intraplatelet free Ca^2+ concentration was calculated by the method of Grykiewicz et al., J. Biol. Chem. 260, 3440 (1985). The ratio of the fluorescence readings was calculated as R=340/380 nm and processed according to the equation [Ca^2+ ]i =KD ((R-Rmin)/Rmax -R))(Sf2 /Sb2) to determine the intraplatelet free Ca^2+ concentration. The KD for fura-2 was assumed to be 224 nM. Rmax and Rmin are the maximum and minimum fluorescence ratios measured at the end of the experiment, respectively; Sf2 and Sb2 are the fluorescence values at 380 nm in the absence and presence of saturating [Ca^2+ ], respectively.

platelets = type: cell-based, human; conditions: washed platelets, α-thrombin 1 nM
Experimental: Fresh whole blood was collected and mixed with 0.013 M sodium citrate and platelet-rich plasma was prepared according to the method of Meloni et al., J. Biol. Chem. 266, 6786, 1991. Washed platelets were prepared by gel filtration over Sepharose 2B columns in Hepes-Tyrode's buffer (0.137 M NaCl, 3 mM KCl, 0.4 mM Na H2 PO4, 12 mM NaHCO3, 1 mM MgCl2, 14.7 mM Hepes containing 20 mM glucose and 0.2% bovine serum albumin, pH 7.35). Platelets for aggregation and secretion studies were incubated according to the method of Schmaier et al., Blood 56, 1013, 1980 with 5-[^14 C]hydroxytryptamine for 30 min at 37° C. The washed platelets (2×10^8 /ml, final concentration radiolabeled with 5-[^14 C]hydroxytryptamine) were added to a cuvette of an aggregometer (Chronolog Corp., Havertown, Pa.), standardized using the protocol of Meloni et al., supra. After the addition of ZnCl2, final concentration 50 μM, purified HK (1 μM) or various concentrations of the peptides (0.1 to 3 mM) or buffer alone was added to the cuvette. Once the baseline stabilized, α-thrombin [0.125 U/ml (1 nM) final concentration] was then added to initiate platelet activation. Stirred platelets were allowed to incubate with o-thrombin and additions for 1 min. In other experiments, platelets were stimulated with TRAP (0.625 to 2.5 μM), ADP (1-5 μM)(Sigma), collagen (1.25 μg/ml) (Horm, Munich, Germany), or U-46619 (1 μM)(Calbiochem Behring, San Diego, Calif.). Additional experiments were performed with washed platelets stimulated with γ-thrombin (1 nM) in the presence of human fibrinogen (100 mg/dl). Both γ-thrombin and human fibrinogen were purchased from Enzyme Research Laboratories, South Bend, Ind. At the conclusion of the incubation, the entire platelet sample was centrifuged at 10,900 xg (Model E, Beckman Instruments, Palo Alto, Calif.) over a 0.135 mM formaldehyde, 5 mM EDTA solution (1 part of formaldehyde-EDTA to 4 parts of platelet suspension) and stored on ice until an aliquot of the supernatant was assayed for 5-[^14 C]hydroxytryptamine secretion. Percent secretion was determined by the ratio of the loss of 5-[^14 C]hydroxytryptamine in the supernatant of the agonist-treated specimen to the loss of 5-[^14 C]hydroxytryptamine in the supernatant of the platelet lysate after the value of the control supernatant (i.e., the level of 5-[^14 C]hydroxytryptamine in a unstimulated sample) was subtracted from both.

Which results are given for RPPGFSPFR [BK, bradykinin]?
inhibition of α-thrombin-induced calcium mobilization (human platelets; FIG. 2, concentration not given): block; pIC50 (human platelets; gel filtered platelets, read-out: IC50, α-thrombin-induced Ca2+ mobilization): 3.64; pIC50 (platelets; read-out: IC50 AGGREGATION (inhibition of α-thrombin-induced platelet aggregation)): 3.60; pIC50 (platelets; read-out: IC50 SECRETION (inhibition of α-thrombin-induced platelet secretion)): 3.00
